{"source": "the supplement of paper PMC11208160", "data": [{"test": "recombinant UMI read abundance after kanamycin selection (control-corrected) (log10(CPM+1)); higher = more efficient recombination; extreme values may be limits of the assay; sequences stand for … in AGTGCAGAGAAAATCGGCCAGTTTTCTCTGCCTGCAGTCCGCATGCCGTGGGACCCCTTGGGTTCTAACCTGTTGCCTAGATTTATGCAGCGGACTGCCTTTCTCCCAAAGTGATAAACCGG…AGGTTGGTTTCACT; site = the 11-nt donor", "outline": "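Each donor and donor-binding-loop pair was tracked by a 12-nt UMI on a plasmid carrying a promoterless kanamycin gene. With a second plasmid supplying a fixed target and T7-inducible IS621 bridge recombinase, the pool was plated in Escherichia coli on IPTG (0.07 mM) plus kanamycin or unselected. Sequencing of recombinant UMIs across the donor–target junction gave counts expressed as log10(CPM+1) after replicate averaging and control-derived scaling.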", "values": [{"sequence": "TGGGAATCATGGACCGGTTTTCCCGGTAATCCGTATTTGCG (site TCGGAATCTCG)", "recombinant UMI read abundance (log10)": 1.85}, {"sequence": "GGCGCACCATGGACCGGTTTTCCCGGTAATCCGTATTTGCA (site GGAGCACCTTG)", "recombinant UMI read abundance (log10)": 0}, {"sequence": "TATCTGGCATGGACCGGTTTTCCCGGTAATCCGTATTTGTG (site TATTTGGCTCA)", "recombinant UMI read abundance (log10)": 0.00973}, {"sequence": "ACCTAGACATGGACCGGTTTTCCCGGTAATCCGTATTTGGG (site AACTAGACTCC)", "recombinant UMI read abundance (log10)": 0.0442}, {"sequence": "GTCTAAACATGGACCGGTTTTCCCGGTAATCCGTATTTGTG (site GTCTAAACTCA)", "recombinant UMI read abundance (log10)": 1.09}, {"sequence": "GAAGATTCATGGACCGGTTTTCCCGGTAATCCGTATTTGTT (site GAAGGTTCTAA)", "recombinant UMI read abundance (log10)": 0.0539}, {"sequence": "AGGTTCCCATGGACCGGTTTTCCCGGTAATCCGTATTTGTG (site AGGTTTCCTCA)", "recombinant UMI read abundance (log10)": 0.00972}, {"sequence": "ATCTATACATGGACCGGTTTTCCCGGTAATCCGTATTTGAG (site ATCTATACTCT)", "recombinant UMI read abundance (log10)": 1.31}, {"sequence": "CGGAAACCATGGACCGGTTTTCCCGGTAATCCGTATTTGTT (site CGGAAACCTAA)", "recombinant UMI read abundance (log10)": 0}, {"sequence": "GATTCACCATGGACCGGTTTTCCCGGTAATCCGTATTTGTT (site GATTCACCTAA)", "recombinant UMI read abundance (log10)": 0.0124}, {"sequence": "TCAGTAGCATGGACCGGTTTTCCCGGTAATCCGTATTTGAT (site TCAGTAGCTAT)", "recombinant UMI read abundance (log10)": 2.12}, {"sequence": "CATAAAGCATGGACCGGTTTTCCCGGTAATCCGTATTTGAT (site CGTAAAGCTAT)", "recombinant UMI read abundance (log10)": 0.166}, {"sequence": "CGCCGTACATGGACCGGTTTTCCCGGTAATCCGTATTTGCA (site CGCCGTACTCG)", "recombinant UMI read abundance (log10)": 0.013}, {"sequence": "CCAGTATCATGGACCGGTTTTCCCGGTAATCCGTATTTGCC (site CCAGTATCTGG)", "recombinant UMI read abundance (log10)": 1.44}, {"sequence": "GGAGTGCCATGGACCGGTTTTCCCGGTAATCCGTATTTGGT (site GGAGTGTCTAC)", "recombinant UMI read abundance (log10)": 1.21}, {"sequence": "TGCCTAGCATGGACCGGTTTTCCCGGTAATCCGTATTTGTT (site CGCCTAGCTAA)", "recombinant UMI read abundance (log10)": 0.0169}, {"sequence": "CGAGTGGCATGGACCGGTTTTCCCGGTAATCCGTATTTGGT (site GGAGTGGCTAC)", "recombinant UMI read abundance (log10)": 0.0253}, {"sequence": "TAGCTACCATGGACCGGTTTTCCCGGTAATCCGTATTTGAA (site TAGCTAGCTTT)", "recombinant UMI read abundance (log10)": 0.00385}, {"sequence": "ATGTGGACATGGACCGGTTTTCCCGGTAATCCGTATTTGAC (site ATGTGGACTGT)", "recombinant UMI read abundance (log10)": 2.94}, {"sequence": "GCATAGACATGGACCGGTTTTCCCGGTAATCCGTATTTGCC (site GGATAGACTGG)", "recombinant UMI read abundance (log10)": 0}, {"sequence": "CGGAATCCATGGACCGGTTTTCCCGGTAATCCGTATTTGTC (site CGGAATCCTAA)", "recombinant UMI read abundance (log10)": 0}, {"sequence": "TACGGACCATGGACCGGTTTTCCCGGTAATCCGTATTTGTC (site TACGGACCTGA)", "recombinant UMI read abundance (log10)": 0}, {"sequence": "CCCTTTTCATGGACCGGTTTTCCCGGTAATCCGTATTTGGG (site CCCTTCTCTCC)", "recombinant UMI read abundance (log10)": 0.0124}, {"sequence": "CGGCAACCATGGACCGGTTTTCCCGGTAATCCGTATTTGAT (site CGGAAACCTAT)", "recombinant UMI read abundance (log10)": 0}, {"sequence": "CAAGCGCCATGGACCGGTTTTCCCGGTAATCCGTATTTGCG (site CAAGCGCCTCT)", "recombinant UMI read abundance (log10)": 0.00392}, {"sequence": "GCGACTGCATGGACCGGTTTTCCCGGTAATCCGTATTTGCC (site GCAACTGCTGG)", "recombinant UMI read abundance (log10)": 2}, {"sequence": "GTTGCGGCATGGACCGGTTTTCCCGGTAATCCGTATTTGCT (site ATTGCGGCTAG)", "recombinant UMI read abundance (log10)": 1.03}, {"sequence": "GCTCCTGCATGGACCGGTTTTCCCGGTAATCCGTATTTGCC (site GCTTCTGCTGG)", "recombinant UMI read abundance (log10)": 0}, {"sequence": "ACGCAACCATGGACCGGTTTTCCCGGTAATCCGTATTTGCT (site ACGCAACCTAG)", "recombinant UMI read abundance (log10)": 0}, {"sequence": "CCCCACCCATGGACCGGTTTTCCCGGTAATCCGTATTTGTA (site CCCCACACTTA)", "recombinant UMI read abundance (log10)": 0.0263}, {"sequence": "CTGCACCCATGGACCGGTTTTCCCGGTAATCCGTATTTGGC (site CTGCACCCTGC)", "recombinant UMI read abundance (log10)": 0.469}, {"sequence": "AGAGTGGCATGGACCGGTTTTCCCGGTAATCCGTATTTGCT (site AGAGTGGCTAG)", "recombinant UMI read abundance (log10)": 2.62}, {"sequence": "TAGGAATCATGGACCGGTTTTCCCGGTAATCCGTATTTGGG (site TAGGAATCTCT)", "recombinant UMI read abundance (log10)": 0.56}, {"sequence": "GTGAAAACATGGACCGGTTTTCCCGGTAATCCGTATTTGCT (site GAGAAAACTAG)", "recombinant UMI read abundance (log10)": 0.918}, {"sequence": "TAAGGTCCATGGACCGGTTTTCCCGGTAATCCGTATTTGTA (site TAATGTCCTTA)", "recombinant UMI read abundance (log10)": 0.00238}, {"sequence": "CTTGTGTCATGGACCGGTTTTCCCGGTAATCCGTATTTGGG (site CTTGTGTCTCC)", "recombinant UMI read abundance (log10)": 0.208}, {"sequence": "GTATCTCCATGGACCGGTTTTCCCGGTAATCCGTATTTGAA (site GTATCTCCTTT)", "recombinant UMI read abundance (log10)": 1.19}, {"sequence": "CGATCGACATGGACCGGTTTTCCCGGTAATCCGTATTTGTA (site CGATCGACTGA)", "recombinant UMI read abundance (log10)": 0}, {"sequence": "GGAGCGACATGGACCGGTTTTCCCGGTAATCCGTATTTGGA (site GGAGCGACTTC)", "recombinant UMI read abundance (log10)": 0.237}, {"sequence": "GATGGCTCATGGACCGGTTTTCCCGGTAATCCGTATTTGCC (site GATGGCTCTGG)", "recombinant UMI read abundance (log10)": 2.65}, {"sequence": "GCAGTATCATGGACCGGTTTTCCCGGTAATCCGTATTTGCT (site GCAGTATCTAG)", "recombinant UMI read abundance (log10)": 2.7}, {"sequence": "TTTTTGGCATGGACCGGTTTTCCCGGTAATCCGTATTTGTG (site TGTTTGGCTCA)", "recombinant UMI read abundance (log10)": 0.0296}, {"sequence": "CACGGACCATGGACCGGTTTTCCCGGTAATCCGTATTTGTT (site CACGGGCCTAA)", "recombinant UMI read abundance (log10)": 0.387}, {"sequence": "AATTGGACATGGACCGGTTTTCCCGGTAATCCGTATTTGAC (site TATTGGACTGT)", "recombinant UMI read abundance (log10)": 1.67}, {"sequence": "TTCGCGGCATGGACCGGTTTTCCCGGTAATCCGTATTTGCT (site TTGGCGGCTAG)", "recombinant UMI read abundance (log10)": 0.00776}, {"sequence": "GATTGGACATGGACCGGTTTTCCCGGTAATCCGTATTTGAG (site GATTGGACTCT)", "recombinant UMI read abundance (log10)": 1.33}, {"sequence": "CAATGCTCATGGACCGGTTTTCCCGGTAATCCGTATTTGCA (site CAATGCTCTTA)", "recombinant UMI read abundance (log10)": 1.1}, {"sequence": "TCTAATTCATGGACCGGTTTTCCCGGTAATCCGTATTTGCC (site TCGAATTCTGG)", "recombinant UMI read abundance (log10)": 0}, {"sequence": "ATCTATACATGGACCGGTTTTCCCGGTAATCCGTATTTGGC (site ATCTATACTGC)", "recombinant UMI read abundance (log10)": 2.23}, {"sequence": "TCGAATACATGGACCGGTTTTCCCGGTAATCCGTATTTGCA (site TCGAATACTTG)", "recombinant UMI read abundance (log10)": 0}, {"sequence": "CTGGACACATGGACCGGTTTTCCCGGTAATCCGTATTTGCA (site CTGGATACTTG)", "recombinant UMI read abundance (log10)": 1.66}, {"sequence": "CCTAAAGCATGGACCGGTTTTCCCGGTAATCCGTATTTGGT (site CCTAAAGCTAT)", "recombinant UMI read abundance (log10)": 0}, {"sequence": "ACAGTATCATGGACCGGTTTTCCCGGTAATCCGTATTTGCA (site ACTGTACCTTG)", "recombinant UMI read abundance (log10)": 0}, {"sequence": "TAGGAATCATGGACCGGTTTTCCCGGTAATCCGTATTTGGG (site TAGGAATCTCC)", "recombinant UMI read abundance (log10)": 1.79}, {"sequence": "TTTGAGACATGGACCGGTTTTCCCGGTAATCCGTATTTGGA (site TTTGAGACTTC)", "recombinant UMI read abundance (log10)": 0.832}, {"sequence": "GAGCTAGCATGGACCGGTTTTCCCGGTAATCCGTATTTGAA (site CAGCTAGCTTT)", "recombinant UMI read abundance (log10)": 0.896}, {"sequence": "CCCCAAACATGGACCGGTTTTCCCGGTAATCCGTATTTGTA (site CCCCACACTTA)", "recombinant UMI read abundance (log10)": 0.0105}, {"sequence": "GATGGTTCATGGACCGGTTTTCCCGGTAATCCGTATTTGAT (site GATGGTTCTAT)", "recombinant UMI read abundance (log10)": 1.58}, {"sequence": "CTACTAACATGGACCGGTTTTCCCGGTAATCCGTATTTGAA (site CTACTAACTTG)", "recombinant UMI read abundance (log10)": 0}, {"sequence": "AATTCTGCATGGACCGGTTTTCCCGGTAATCCGTATTTGGA (site AATTGTGCTTC)", "recombinant UMI read abundance (log10)": 0.0372}, {"sequence": "CGGCCGTCATGGACCGGTTTTCCCGGTAATCCGTATTTGAT (site CGGCCGTCTAT)", "recombinant UMI read abundance (log10)": 0.968}, {"sequence": "ATTTAGGCATGGACCGGTTTTCCCGGTAATCCGTATTTGGC (site ATATAGGCTGC)", "recombinant UMI read abundance (log10)": 1.64}, {"sequence": "CCAGTGTCATGGACCGGTTTTCCCGGTAATCCGTATTTGCA (site ACAGTATCTTG)", "recombinant UMI read abundance (log10)": 0}, {"sequence": "CTACTAACATGGACCGGTTTTCCCGGTAATCCGTATTTGGA (site CTACTAACTTC)", "recombinant UMI read abundance (log10)": 1.69}, {"sequence": "AGGTTCCCATGGACCGGTTTTCCCGGTAATCCGTATTTGTG (site AGGTACCCTCA)", "recombinant UMI read abundance (log10)": 0.00814}, {"sequence": "AGCGCGACATGGACCGGTTTTCCCGGTAATCCGTATTTGAG (site AGCGCGACTCT)", "recombinant UMI read abundance (log10)": 1.27}, {"sequence": "CGATGCTCATGGACCGGTTTTCCCGGTAATCCGTATTTGAA (site CGATGCTCTTT)", "recombinant UMI read abundance (log10)": 2.6}, {"sequence": "GGTATGCCATGGACCGGTTTTCCCGGTAATCCGTATTTGAC (site GGTATGCCTGT)", "recombinant UMI read abundance (log10)": 0}, {"sequence": "CGTGAACCATGGACCGGTTTTCCCGGTAATCCGTATTTGAT (site CGTGAACCTAT)", "recombinant UMI read abundance (log10)": 0.0133}, {"sequence": "TCCACCCCATGGACCGGTTTTCCCGGTAATCCGTATTTGCG (site TCCACCGCTCG)", "recombinant UMI read abundance (log10)": 0.0184}, {"sequence": "TAACTTCCATGGACCGGTTTTCCCGGTAATCCGTATTTGCA (site TAACTTCCTTG)", "recombinant UMI read abundance (log10)": 0.949}, {"sequence": "TGCCTCTCATGGACCGGTTTTCCCGGTAATCCGTATTTGCG (site TGCCTCTCTCG)", "recombinant UMI read abundance (log10)": 0.00512}, {"sequence": "TTAAGTCCATGGACCGGTTTTCCCGGTAATCCGTATTTGTA (site TGAAGTCCTTA)", "recombinant UMI read abundance (log10)": 0.0153}, {"sequence": "CTTGCGGCATGGACCGGTTTTCCCGGTAATCCGTATTTGCT (site CTTGCGGCTAG)", "recombinant UMI read abundance (log10)": 0.82}, {"sequence": "TCATAGACATGGACCGGTTTTCCCGGTAATCCGTATTTGCG (site TCAGAGACTCG)", "recombinant UMI read abundance (log10)": 0.00296}]}]}
